Assays:
Rattus norvegicus [1] = species: Rattus norvegicus; assay: DrugMatrix - Regimen: Daily Repeat; type: toxicity, organism-based, Sprague-Dawley; set-up: regimen Daily Repeat, gender Male, age 6-8 weeks; conditions: in vivo, po, 17 mg/kg, route oral GAVAGE, dose level High, vehicle .5 % CMC
Rattus norvegicus [2] = species: Rattus norvegicus; type: toxicity, organism-based, Sprague-Dawley; conditions: in vivo, po, 17 mg/kg, 24 h, route oral GAVAGE, dose level High, time 1 day, vehicle .5 % CMC
Description: DrugMatrix - Regimen: Single

[3] = […], tissue Plasma, time 14 day

**Q.** For COc1ccc(C(=O)Nc2c(Cl)cncc2Cl)cc1OC1CCCC1, which “URIC ACID” value (Rattus norvegicus [1]; 120 h, tissue Plasma, time 5 day) is on record?
**A.** 1.5 mg/dL

**Q.** And the “ABSOLUTE BASOPHIL” value (Rattus norvegicus [1]; […], tissue Blood, time 14 day)?
**A.** 0 CELLS/uL

**Q.** What about the “ABSOLUTE EOSINOPHIL” value (Rattus norvegicus [1]; […], tissue Blood, time 14 day) of the same molecule?
**A.** 107.5 CELLS/uL

**Q.** And the “ABSOLUTE LYMPHOCYTE” value (Rattus norvegicus [1]; […], tissue Blood, time 14 day)?
**A.** 9595.25 CELLS/uL

**Q.** And the “ABSOLUTE MONOCYTE” value (Rattus norvegicus [1]; […], tissue Blood, time 14 day)?
**A.** 1138.5 CELLS/uL

**Q.** What about the “ABSOLUTE SEGMENTED NEUTROPHIL” value (Rattus norvegicus [1]; […], tissue Blood, time 14 day) of the same molecule?
**A.** 8133.75 CELLS/uL

**Q.** And the BASOPHIL (Rattus norvegicus [1]; […], tissue Blood, time 14 day)?
**A.** 0%

**Q.** What about the EOSINOPHIL (Rattus norvegicus [1]; […], tissue Blood, time 14 day) of the same molecule?
**A.** 0.5%

**Q.** What about the “ERYTHROCYTE COUNT” value (Rattus norvegicus [1]; […], tissue Blood, time 14 day) of the same molecule?
**A.** 6.06 x10E6/uL

**Q.** And the HEMATOCRIT (Rattus norvegicus [1]; […], tissue Blood, time 14 day)?
**A.** 34.55%

**Q.** And the HEMOGLOBIN (Rattus norvegicus [1]; […], tissue Blood, time 14 day)?
**A.** 12.95 G/DL

**Q.** And the “LEUKOCYTE COUNT” value (Rattus norvegicus [1]; […], tissue Blood, time 14 day)?
**A.** 18.98 x10E3/uL

**Q.** And the LYMPHOCYTE (Rattus norvegicus [1]; […], tissue Blood, time 14 day)?
**A.** 60.25%

**Q.** And the “MEAN CORPUSCULAR HEMOGLOBIN” value (Rattus norvegicus [1]; […], tissue Blood, time 14 day)?
**A.** 21.4 pg

**Q.** And the “MEAN CORPUSCULAR HEMOGLOBIN CONCENTRATION” value (Rattus norvegicus [1]; […], tissue Blood, time 14 day)?
**A.** 37.5 G/DL

**Q.** What about the “MEAN CORPUSCULAR VOLUME” value (Rattus norvegicus [1]; […], tissue Blood, time 14 day) of the same molecule?
**A.** 57.05 fL

**Q.** And the MONOCYTE (Rattus norvegicus [1]; […], tissue Blood, time 14 day)?
**A.** 5%

**Q.** And the NEUTROPHIL (Rattus norvegicus [1]; […], tissue Blood, time 14 day)?
**A.** 34.25%

**Q.** What about the “NUCLEATED RED BLOOD CELLS” value (Rattus norvegicus [1]; […], tissue Blood, time 14 day) of the same molecule?
**A.** 0 /100WBC

**Q.** What about the “PLATELET COUNT” value (Rattus norvegicus [1]; […], tissue Blood, time 14 day) of the same molecule?
**A.** 1068 x10E3/uL

**Q.** And the “ALANINE AMINOTRANSFERASE” value (Rattus norvegicus [1]; [3])?
**A.** 48.25 u/L

**Q.** And the ALBUMIN (Rattus norvegicus [1]; [3])?
**A.** 3.22 G/DL

**Q.** What about the “ALKALINE PHOSPHATASE” value (Rattus norvegicus [1]; [3]) of the same molecule?
**A.** 273 u/L

**Q.** And the “ASPARTATE AMINOTRANSFERASE” value (Rattus norvegicus [1]; [3])?
**A.** 67 u/L

**Q.** And the “BLOOD UREA NITROGEN” value (Rattus norvegicus [1]; [3])?
**A.** 14.25 mg/dL

**Q.** What about the “CARBON DIOXIDE” value (Rattus norvegicus [1]; [3]) of the same molecule?
**A.** 33.75 mmol/L

**Q.** What about the CHLORIDE (Rattus norvegicus [1]; [3]) of the same molecule?
**A.** 100.5 MEQ/L

**Q.** What about the CHOLESTEROL (Rattus norvegicus [1]; [3]) of the same molecule?
**A.** 56 mg/dL

**Q.** And the CREATININE (Rattus norvegicus [1]; [3])?
**A.** 0.24 mg/dL

**Q.** What about the GLUCOSE (Rattus norvegicus [1]; [3]) of the same molecule?
**A.** 131 mg/dL

**Q.** What about the “LACTATE DEHYDROGENASE” value (Rattus norvegicus [1]; [3]) of the same molecule?
**A.** 107.75 u/L

**Q.** What about the LIPASE (Rattus norvegicus [1]; [3]) of the same molecule?
**A.** 9 u/L

**Q.** And the PHOSPHORUS (Rattus norvegicus [1]; [3])?
**A.** 8.28 mg/dL

**Q.** And the POTASSIUM (Rattus norvegicus [1]; [3])?
**A.** 5.54 MEQ/L

**Q.** What about the SODIUM (Rattus norvegicus [1]; [3]) of the same molecule?
**A.** 148.15 MEQ/L

**Q.** What about the “TOTAL BILIRUBIN” value (Rattus norvegicus [1]; [3]) of the same molecule?
**A.** 0.18 mg/dL

**Q.** And the “TOTAL PROTEIN” value (Rattus norvegicus [1]; [3])?
**A.** 6.12 G/DL

**Q.** And the “URIC ACID” value (Rattus norvegicus [1]; [3])?
**A.** 0.62 mg/dL

**Q.** And the “ABSOLUTE EOSINOPHIL” value (Rattus norvegicus [2]; tissue Blood)?
**A.** 176.33 CELLS/uL

**Q.** And the “ABSOLUTE LYMPHOCYTE” value (Rattus norvegicus [2]; tissue Blood)?
**A.** 11028.33 CELLS/uL

**Q.** What about the “ABSOLUTE MONOCYTE” value (Rattus norvegicus [2]; tissue Blood) of the same molecule?
**A.** 409.33 CELLS/uL

**Q.** What about the “ABSOLUTE SEGMENTED NEUTROPHIL” value (Rattus norvegicus [2]; tissue Blood) of the same molecule?
**A.** 1619.33 CELLS/uL

**Q.** And the BASOPHIL (Rattus norvegicus [2]; tissue Blood)?
**A.** 0%

**Q.** And the EOSINOPHIL (Rattus norvegicus [2]; tissue Blood)?
**A.** 1.33%

**Q.** And the “ERYTHROCYTE COUNT” value (Rattus norvegicus [2]; tissue Blood)?
**A.** 5.33 x10E6/uL

**Q.** And the HEMATOCRIT (Rattus norvegicus [2]; tissue Blood)?
**A.** 33.03%

**Q.** And the HEMOGLOBIN (Rattus norvegicus [2]; tissue Blood)?
**A.** 12.1 G/DL

**Q.** And the “LEUKOCYTE COUNT” value (Rattus norvegicus [2]; tissue Blood)?
**A.** 13.23 x10E3/uL

**Q.** What about the LYMPHOCYTE (Rattus norvegicus [2]; tissue Blood) of the same molecule?
**A.** 83.33%

**Q.** What about the “MEAN CORPUSCULAR HEMOGLOBIN” value (Rattus norvegicus [2]; tissue Blood) of the same molecule?
**A.** 22.7 pg

**Q.** And the “MEAN CORPUSCULAR HEMOGLOBIN CONCENTRATION” value (Rattus norvegicus [2]; tissue Blood)?
**A.** 36.67 G/DL

**Q.** And the “MEAN CORPUSCULAR VOLUME” value (Rattus norvegicus [2]; tissue Blood)?
**A.** 61.9 fL

**Q.** And the MONOCYTE (Rattus norvegicus [2]; tissue Blood)?
**A.** 3%

**Q.** And the NEUTROPHIL (Rattus norvegicus [2]; tissue Blood)?
**A.** 12.33%

**Q.** And the “NUCLEATED RED BLOOD CELLS” value (Rattus norvegicus [2]; tissue Blood)?
**A.** 0 /100WBC

**Q.** What about the “PLATELET COUNT” value (Rattus norvegicus [2]; tissue Blood) of the same molecule?
**A.** 1139 x10E3/uL

**Q.** And the “ALANINE AMINOTRANSFERASE” value (Rattus norvegicus [2]; tissue Plasma)?
**A.** 61.33 u/L

**Q.** What about the ALBUMIN (Rattus norvegicus [2]; tissue Plasma) of the same molecule?
**A.** 4.37 G/DL

**Q.** What about the “ALKALINE PHOSPHATASE” value (Rattus norvegicus [2]; tissue Plasma) of the same molecule?
**A.** 327.67 u/L

**Q.** And the “ASPARTATE AMINOTRANSFERASE” value (Rattus norvegicus [2]; tissue Plasma)?
**A.** 116 u/L

**Q.** What about the “BLOOD UREA NITROGEN” value (Rattus norvegicus [2]; tissue Plasma) of the same molecule?
**A.** 15.67 mg/dL

**Q.** What about the “CARBON DIOXIDE” value (Rattus norvegicus [2]; tissue Plasma) of the same molecule?
**A.** 34.33 mmol/L

**Q.** And the CHLORIDE (Rattus norvegicus [2]; tissue Plasma)?
**A.** 101.33 MEQ/L

**Q.** And the CHOLESTEROL (Rattus norvegicus [2]; tissue Plasma)?
**A.** 76 mg/dL

**Q.** What about the CREATININE (Rattus norvegicus [2]; tissue Plasma) of the same molecule?
**A.** 0.2 mg/dL

**Q.** What about the GLUCOSE (Rattus norvegicus [2]; tissue Plasma) of the same molecule?
**A.** 153.67 mg/dL

**Q.** And the “LACTATE DEHYDROGENASE” value (Rattus norvegicus [2]; tissue Plasma)?
**A.** 163.33 u/L

**Q.** What about the LIPASE (Rattus norvegicus [2]; tissue Plasma) of the same molecule?
**A.** 9 u/L

**Q.** What about the PHOSPHORUS (Rattus norvegicus [2]; tissue Plasma) of the same molecule?
**A.** 12.6 mg/dL

**Q.** And the POTASSIUM (Rattus norvegicus [2]; tissue Plasma)?
**A.** 6.66 MEQ/L

**Q.** And the SODIUM (Rattus norvegicus [2]; tissue Plasma)?
**A.** 148.6 MEQ/L

**Q.** And the “TOTAL BILIRUBIN” value (Rattus norvegicus [2]; tissue Plasma)?
**A.** 0.2 mg/dL

**Q.** What about the “TOTAL PROTEIN” value (Rattus norvegicus [2]; tissue Plasma) of the same molecule?
**A.** 6.3 G/DL

**Q.** And the “URIC ACID” value (Rattus norvegicus [2]; tissue Plasma)?
**A.** 1.2 mg/dL

— ChEMBL document CHEMBL3885881, “DrugMatrix”
